From US10280149B2, “Therapeutic compounds and uses thereof” (GENENTECH, INC., priority 2015, dated 2019)

target: Full length KDM2B (Homo sapiens (Human), UniProt Q8NHM5); test: KDM2B TR-FRET assay for determining inhibitor IC50; assay type: biochemical; details: TR-FRET (HTRF), biotin-H3K36me2 peptide substrate, 2-OG 0.3 μM or 6 μM
From the text: KDM2B TR-FRET Assay for Determining Inhibitor IC50
The KDM2B TR-FRET Assay described above represents an additional embodiment of the invention.

Sequence of Full length KDM2B (Q8NHM5 whole entry): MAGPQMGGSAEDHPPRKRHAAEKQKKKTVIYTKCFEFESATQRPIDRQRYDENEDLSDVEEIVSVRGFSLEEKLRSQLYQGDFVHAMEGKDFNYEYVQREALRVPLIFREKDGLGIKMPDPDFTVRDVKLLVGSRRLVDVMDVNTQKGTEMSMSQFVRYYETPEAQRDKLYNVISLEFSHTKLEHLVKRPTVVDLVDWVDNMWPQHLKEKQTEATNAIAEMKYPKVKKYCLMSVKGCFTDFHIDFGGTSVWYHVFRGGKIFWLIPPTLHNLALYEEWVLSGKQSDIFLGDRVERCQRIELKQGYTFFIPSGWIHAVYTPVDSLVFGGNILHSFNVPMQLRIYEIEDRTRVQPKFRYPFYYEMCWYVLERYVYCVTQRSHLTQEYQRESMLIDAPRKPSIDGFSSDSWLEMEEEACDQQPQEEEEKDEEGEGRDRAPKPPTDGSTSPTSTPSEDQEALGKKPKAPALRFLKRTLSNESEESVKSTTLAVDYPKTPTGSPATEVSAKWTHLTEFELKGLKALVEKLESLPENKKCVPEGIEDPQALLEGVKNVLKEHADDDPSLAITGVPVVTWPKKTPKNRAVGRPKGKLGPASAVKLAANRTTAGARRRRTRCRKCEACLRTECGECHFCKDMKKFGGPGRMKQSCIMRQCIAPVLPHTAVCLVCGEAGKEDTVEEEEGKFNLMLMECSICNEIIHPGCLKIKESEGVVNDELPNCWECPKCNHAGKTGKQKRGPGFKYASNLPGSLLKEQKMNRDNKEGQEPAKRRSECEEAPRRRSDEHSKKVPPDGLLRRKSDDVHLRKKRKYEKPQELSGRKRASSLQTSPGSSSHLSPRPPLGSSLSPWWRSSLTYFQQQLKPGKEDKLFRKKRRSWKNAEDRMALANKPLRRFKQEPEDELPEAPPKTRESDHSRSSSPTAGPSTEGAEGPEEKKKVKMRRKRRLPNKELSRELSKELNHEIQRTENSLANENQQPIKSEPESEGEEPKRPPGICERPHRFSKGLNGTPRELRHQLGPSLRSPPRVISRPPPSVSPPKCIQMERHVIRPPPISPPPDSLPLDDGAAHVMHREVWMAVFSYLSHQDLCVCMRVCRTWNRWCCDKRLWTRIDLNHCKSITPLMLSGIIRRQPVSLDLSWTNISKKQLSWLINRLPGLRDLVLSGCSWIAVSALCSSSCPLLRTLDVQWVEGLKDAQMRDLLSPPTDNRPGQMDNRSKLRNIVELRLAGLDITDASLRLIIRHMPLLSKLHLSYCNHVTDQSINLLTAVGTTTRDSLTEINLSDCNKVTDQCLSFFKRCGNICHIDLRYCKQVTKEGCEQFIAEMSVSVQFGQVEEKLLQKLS

Compound	IC50 [nM]
COc1ccc(C(=O)C2CCCN(CC3CC3)C2)cc1 (single isomer, unassigned) [Example 110a, (1-(cyclopropylmethyl)piperidin-3-yl)(4-methoxyphenyl)methanone]	2000
O=C(c1ccc2ccccc2n1)C1CCCN(CC2CC2)C1 (single isomer, unassigned) [Example 117a, (1-(cyclopropylmethyl)piperidin-3-yl)(quinolin-2-yl)methanone]	356
COc1cccc2cc(C(=O)C3CN(CC4CC4)CCC3C)ccc12 (single isomer, unassigned) [Example 136a, (1-(cyclopropylmethyl)-4-methylpiperidin-3-yl)(5-methoxynaphthalen-2-yl)methanone]	41.4
COc1cccc2cc(C(=O)[C@@H]3CN(CC4CC4)CC[C@@H]3C)ccc12 (single isomer, unassigned) [Example 136b, (1-(cyclopropylmethyl)-4-methylpiperidin-3-yl)(5-methoxynaphthalen-2-yl)methanone]	1200
COc1ccc2cc(C(=O)[C@@H]3CN(CC4CC4)CC[C@H]3C)ccc2c1 (single isomer, unassigned) [Example 137b, (1-(cyclopropylmethyl)-4-methylpiperidin-3-yl)(6-methoxynaphthalen-2-yl)methanone]	92.8
COc1ccc2cc(C(=O)[C@H]3CN(CC4CC4)CC[C@H]3C)ccc2c1 (single isomer, unassigned) [Example 137c, (1-(cyclopropylmethyl)-4-methylpiperidin-3-yl)(6-methoxynaphthalen-2-yl)methanone]	1100
COc1ccc2cc(C(=O)[C@H]3CN(CC4CC4)CC[C@@H]3C)ccc2c1 (single isomer, unassigned) [Example 137d, (1-(cyclopropylmethyl)-4-methylpiperidin-3-yl)(6-methoxynaphthalen-2-yl)methanone]	3300
COc1ccc2cc(C(=O)C3CN(CC4CC4)CCC3C(F)(F)F)ccc2c1 (single isomer, unassigned) [Example 138a, (1-(cyclopropylmethyl)-4-(trifluoromethyl)piperidin-3-yl)(6-methoxynaphthalen-2-yl)methanone]	137
COc1ccc2cc(C(=O)C3CN(CC4CC4)CCC3C(F)(F)F)ccc2c1 (single isomer, unassigned) [Example 138b, (1-(cyclopropylmethyl)-4-(trifluoromethyl)piperidin-3-yl)(6-methoxynaphthalen-2-yl)methanone]	4800
COc1ccc2cc(C(=O)[C@H]3C[C@@H](C)CN(CC4CC4)C3)ccc2c1 (single isomer, unassigned) [Example 139a, (1-(cyclopropylmethyl)-5-methylpiperidin-3-yl)(6-methoxynaphthalen-2-yl)methanone]	333
CCCC1CCN(C2CCC2)CC1C(=O)c1ccc2cc(OC)ccc2c1 (single isomer, unassigned) [Example 140a, (1-cyclobutyl-4-propylpiperidin-3-yl)(6-methoxynaphthalen-2-yl)methanone]	310
CCC[C@H]1CCN(C2CCC2)C[C@@H]1C(=O)c1ccc2cc(OC)ccc2c1 (single isomer, unassigned) [Example 140b, (1-cyclobutyl-4-propylpiperidin-3-yl)(6-methoxynaphthalen-2-yl)methanone]	328
CCC[C@H]1CCN(C2CCC2)C[C@H]1C(=O)c1ccc2cc(OC)ccc2c1 (single isomer, unassigned) [Example 140c, (1-cyclobutyl-4-propylpiperidin-3-yl)(6-methoxynaphthalen-2-yl)methanone]	5.48
CCCC1CCN(C2CCC2)CC1C(=O)c1ccc2cc(OC)ccc2c1 (single isomer, unassigned) [Example 140d, (1-cyclobutyl-4-propylpiperidin-3-yl)(6-methoxynaphthalen-2-yl)methanone]	9.96
